Species on record: Rattus norvegicus
Experiment: DrugMatrix - Regimen: Daily Repeat
Assay type: toxicity, organism-based, Sprague-Dawley
Parameters: regimen Daily Repeat, gender Male, age 6-8 weeks
Details: in vivo, po, route oral GAVAGE, vehicle 100 % WATER; for ABSOLUTE BASOPHIL / ABSOLUTE EOSINOPHIL / ABSOLUTE LYMPHOCYTE / ABSOLUTE MONOCYTE / ABSOLUTE SEGMENTED NEUTROPHIL / BASOPHIL / EOSINOPHIL / ERYTHROCYTE COUNT / HEMATOCRIT / HEMOGLOBIN / LEUKOCYTE COUNT / LYMPHOCYTE / MEAN CORPUSCULAR HEMOGLOBIN / MEAN CORPUSCULAR HEMOGLOBIN CONCENTRATION / MEAN CORPUSCULAR VOLUME / MONOCYTE / NEUTROPHIL / NUCLEATED RED BLOOD CELLS / PLATELET COUNT: tissue Blood; for ALANINE AMINOTRANSFERASE / ALBUMIN / ALKALINE PHOSPHATASE / ASPARTATE AMINOTRANSFERASE / BLOOD UREA NITROGEN / CARBON DIOXIDE / CHLORIDE / CHOLESTEROL / CREATINE PHOSPHOKINASE / CREATININE / GLUCOSE / LACTATE DEHYDROGENASE / LIPASE / PHOSPHORUS / POTASSIUM / SODIUM / TOTAL BILIRUBIN / TOTAL PROTEIN / URIC ACID: tissue Plasma
[1] = 30 mg/kg, 72 h, dose level Low, time 3 day
[2] = 30 mg/kg, 120 h, dose level Low, time 5 day
[3] = 3000 mg/kg, 72 h, dose level High, time 3 day
[4] = 3000 mg/kg, 120 h, dose level High, time 5 day

Compound: O=C(O)CC(O)(CC(=O)O)C(=O)O [CITRIC ACID]
- ABSOLUTE BASOPHIL [1]: 0 CELLS/uL
- ABSOLUTE EOSINOPHIL [1]: 0 CELLS/uL
- ABSOLUTE LYMPHOCYTE [1]: 12691.33 CELLS/uL
- ABSOLUTE MONOCYTE [1]: 367.33 CELLS/uL
- ABSOLUTE SEGMENTED NEUTROPHIL [1]: 908 CELLS/uL
- BASOPHIL [1]: 0%
- EOSINOPHIL [1]: 0%
- ERYTHROCYTE COUNT [1]: 5.83 x10E6/uL
- HEMATOCRIT [1]: 37%
- HEMOGLOBIN [1]: 14.67 G/DL
- LEUKOCYTE COUNT [1]: 13.97 x10E3/uL
- LYMPHOCYTE [1]: 91%
- MEAN CORPUSCULAR HEMOGLOBIN [1]: 25.17 pg
- MEAN CORPUSCULAR HEMOGLOBIN CONCENTRATION [1]: 39.67 G/DL
- MEAN CORPUSCULAR VOLUME [1]: 63.43 fL
- MONOCYTE [1]: 2.67%
- NEUTROPHIL [1]: 6.33%
- NUCLEATED RED BLOOD CELLS [1]: 0 /100WBC
- PLATELET COUNT [1]: 1121.33 x10E3/uL
- ALANINE AMINOTRANSFERASE [1]: 54.67 u/L
- ALBUMIN [1]: 4.2 G/DL
- ALKALINE PHOSPHATASE [1]: 442.33 u/L
- ASPARTATE AMINOTRANSFERASE [1]: 93.33 u/L
- BLOOD UREA NITROGEN [1]: 13.33 mg/dL
- CARBON DIOXIDE [1]: 23 mmol/L
- CHLORIDE [1]: 102.33 MEQ/L
- CHOLESTEROL [1]: 85.67 mg/dL
- CREATINE PHOSPHOKINASE [1]: 514.33 u/L
- CREATININE [1]: 0.18 mg/dL
- GLUCOSE [1]: 184.33 mg/dL
- LACTATE DEHYDROGENASE [1]: 173 u/L
- LIPASE [1]: 9.67 u/L
- PHOSPHORUS [1]: 12.77 mg/dL
- POTASSIUM [1]: 6.46 MEQ/L
- SODIUM [1]: 146.53 MEQ/L
- TOTAL BILIRUBIN [1]: 0.2 mg/dL
- TOTAL PROTEIN [1]: 5.97 G/DL
- URIC ACID [1]: 2.5 mg/dL
- ABSOLUTE BASOPHIL [2]: 0 CELLS/uL
- ABSOLUTE EOSINOPHIL [2]: 0 CELLS/uL
- ABSOLUTE LYMPHOCYTE [2]: 16594.33 CELLS/uL
- ABSOLUTE MONOCYTE [2]: 186.67 CELLS/uL
- ABSOLUTE SEGMENTED NEUTROPHIL [2]: 1885.67 CELLS/uL
- BASOPHIL [2]: 0%
- EOSINOPHIL [2]: 0%
- ERYTHROCYTE COUNT [2]: 5.64 x10E6/uL
- HEMATOCRIT [2]: 37.07%
- HEMOGLOBIN [2]: 14.63 G/DL
- LEUKOCYTE COUNT [2]: 18.67 x10E3/uL
- LYMPHOCYTE [2]: 88.67%
- MEAN CORPUSCULAR HEMOGLOBIN [2]: 25.97 pg
- MEAN CORPUSCULAR HEMOGLOBIN CONCENTRATION [2]: 39.47 G/DL
- MEAN CORPUSCULAR VOLUME [2]: 65.7 fL
- MONOCYTE [2]: 1%
- NEUTROPHIL [2]: 10.33%
- NUCLEATED RED BLOOD CELLS [2]: 0 /100WBC
- PLATELET COUNT [2]: 1295.33 x10E3/uL
- ALANINE AMINOTRANSFERASE [2]: 48 u/L
- ALBUMIN [2]: 4.2 G/DL
- ALKALINE PHOSPHATASE [2]: 374.67 u/L
- ASPARTATE AMINOTRANSFERASE [2]: 80.67 u/L
- BLOOD UREA NITROGEN [2]: 18 mg/dL
- CARBON DIOXIDE [2]: 23 mmol/L
- CHLORIDE [2]: 103.67 MEQ/L
- CHOLESTEROL [2]: 77 mg/dL
- CREATINE PHOSPHOKINASE [2]: 316.33 u/L
- CREATININE [2]: 0.18 mg/dL
- GLUCOSE [2]: 154.33 mg/dL
- LACTATE DEHYDROGENASE [2]: 396.33 u/L
- LIPASE [2]: 10.33 u/L
- PHOSPHORUS [2]: 13.53 mg/dL
- POTASSIUM [2]: 6.74 MEQ/L
- SODIUM [2]: 147.27 MEQ/L
- TOTAL BILIRUBIN [2]: 0.2 mg/dL
- TOTAL PROTEIN [2]: 6.03 G/DL
- URIC ACID [2]: 1.4 mg/dL
- ABSOLUTE BASOPHIL [3]: 0 CELLS/uL
- ABSOLUTE EOSINOPHIL [3]: 0 CELLS/uL
- ABSOLUTE LYMPHOCYTE [3]: 12922.33 CELLS/uL
- ABSOLUTE MONOCYTE [3]: 727.33 CELLS/uL
- ABSOLUTE SEGMENTED NEUTROPHIL [3]: 1850.33 CELLS/uL
- BASOPHIL [3]: 0%
- EOSINOPHIL [3]: 0%
- ERYTHROCYTE COUNT [3]: 5.42 x10E6/uL
- HEMATOCRIT [3]: 33.17%
- HEMOGLOBIN [3]: 13.3 G/DL
- LEUKOCYTE COUNT [3]: 15.5 x10E3/uL
- LYMPHOCYTE [3]: 83.67%
- MEAN CORPUSCULAR HEMOGLOBIN [3]: 24.53 pg
- MEAN CORPUSCULAR HEMOGLOBIN CONCENTRATION [3]: 40.1 G/DL
- MEAN CORPUSCULAR VOLUME [3]: 61.2 fL
- MONOCYTE [3]: 4.67%
- NEUTROPHIL [3]: 11.67%
- NUCLEATED RED BLOOD CELLS [3]: 0 /100WBC
- PLATELET COUNT [3]: 1290.67 x10E3/uL
- ALANINE AMINOTRANSFERASE [3]: 49.67 u/L
- ALBUMIN [3]: 4.17 G/DL
- ALKALINE PHOSPHATASE [3]: 428.33 u/L
- ASPARTATE AMINOTRANSFERASE [3]: 78.33 u/L
- BLOOD UREA NITROGEN [3]: 15.67 mg/dL
- CARBON DIOXIDE [3]: 26.67 mmol/L
- CHLORIDE [3]: 103 MEQ/L
- CHOLESTEROL [3]: 70.33 mg/dL
- CREATINE PHOSPHOKINASE [3]: 223 u/L
- CREATININE [3]: 0.2 mg/dL
- GLUCOSE [3]: 155 mg/dL
- LACTATE DEHYDROGENASE [3]: 102.33 u/L
- LIPASE [3]: 9.67 u/L
- PHOSPHORUS [3]: 12.67 mg/dL
- POTASSIUM [3]: 6.48 MEQ/L
- SODIUM [3]: 145.77 MEQ/L
- TOTAL BILIRUBIN [3]: 0.2 mg/dL
- TOTAL PROTEIN [3]: 5.53 G/DL
- URIC ACID [3]: 1.37 mg/dL
- ABSOLUTE BASOPHIL [4]: 0 CELLS/uL
- ABSOLUTE EOSINOPHIL [4]: 62.33 CELLS/uL
- ABSOLUTE LYMPHOCYTE [4]: 16836 CELLS/uL
- ABSOLUTE MONOCYTE [4]: 0 CELLS/uL
- ABSOLUTE SEGMENTED NEUTROPHIL [4]: 2301.67 CELLS/uL
- BASOPHIL [4]: 0%
- EOSINOPHIL [4]: 0.33%
- ERYTHROCYTE COUNT [4]: 5.65 x10E6/uL
- HEMATOCRIT [4]: 36.43%
- HEMOGLOBIN [4]: 14.37 G/DL
- LEUKOCYTE COUNT [4]: 19.2 x10E3/uL
- LYMPHOCYTE [4]: 87.67%
- MEAN CORPUSCULAR HEMOGLOBIN [4]: 25.5 pg
- MEAN CORPUSCULAR HEMOGLOBIN CONCENTRATION [4]: 39.47 G/DL
- MEAN CORPUSCULAR VOLUME [4]: 64.63 fL
- MONOCYTE [4]: 0%
- NEUTROPHIL [4]: 12%
- NUCLEATED RED BLOOD CELLS [4]: 1 /100WBC
- PLATELET COUNT [4]: 1284.33 x10E3/uL
- ALANINE AMINOTRANSFERASE [4]: 50 u/L
- ALBUMIN [4]: 4.2 G/DL
- ALKALINE PHOSPHATASE [4]: 416.67 u/L
- ASPARTATE AMINOTRANSFERASE [4]: 71.67 u/L
- BLOOD UREA NITROGEN [4]: 16.67 mg/dL
- CARBON DIOXIDE [4]: 23.67 mmol/L
- CHLORIDE [4]: 102 MEQ/L
- CHOLESTEROL [4]: 77 mg/dL
- CREATINE PHOSPHOKINASE [4]: 254.67 u/L
- CREATININE [4]: 0.2 mg/dL
- GLUCOSE [4]: 151 mg/dL
- LACTATE DEHYDROGENASE [4]: 91.33 u/L
- LIPASE [4]: 10.33 u/L
- PHOSPHORUS [4]: 13.03 mg/dL
- POTASSIUM [4]: 6.54 MEQ/L
- SODIUM [4]: 144.77 MEQ/L
- TOTAL BILIRUBIN [4]: 0.23 mg/dL
- TOTAL PROTEIN [4]: 5.93 G/DL
- URIC ACID [4]: 1.57 mg/dL

— ChEMBL document CHEMBL3885881, “DrugMatrix”
